According to patent US4386073A, “Tripeptides acting on the central nervous system and a process for the preparation thereof” (Patentbureau DANUBIA, priority 1979, dated 1983):
Where a SMILES comes first, the peptide text is derived from it. [ ]: non-standard residue; d: D form. d(pGlu) = O=C1CC[C@H](C(=O)O)N1

Each compound was assayed on Haloperidol-induced catalepsy (assay: Inhibition of Haloperidol-induced catalepsy on rats). Settings: Haloperidol 40 mg/kg s.c., test compound i.v. 120 min later, probit analysis, at the time given.
Assay type: in vivo, rat (male Wistar)
Description: (1) Inhibition of Haloperidol-induced catalepsy on rats (see J. Delay and P. Deniker: Compt. Rend. Congr. Med. Alenistes Neurologistes, 19, 497, Luxembourg, 1952)
The tests were performed on male Wistar rats weighing 160 to 180 g.
40 mg/kg of 4-(p-chlorophenyl)-1-(3-/p-fluorobenzoyl/-propyl)-piperidin-4-ol (Haloperi dol) were administered subcutaneously into the animals, and 120 minutes after this treatment the animals were checked for the appearance of catalepsy. The rats were divided into groups of 10 animals each, and treated intravenously with TRH or the new TRH analogues. The animals belonging to the control group received physiological saline. The catalepsy-suspending effects of the individual compounds were determined 15, 30, 60, 90 and 120 minutes after the treatment. The animals that had not changed their position for 30 seconds after placing their fore-paw onto a 7 cm high column were regarded as cataleptic.

`NC(=O)[C@@H]1CCCN1C(=O)[C@H](Cc1c[nH]cn1)NC(=O)[C@@H]1CCC(=O)N1` [TRH, L-pyroglutamyl-L-histidyl-L-prolinamide, reference compound] and `CC(C)C[C@H](NC(=O)[C@H]1CCC(=O)N1)C(=O)N1CCC[C@H]1C(N)=O` [D-Glp Leu Pro, D-Pyroglutamyl-L-leucyl-L-prolinamide] ([d(pGlu)]-Leu-Pro-NH2) are within 1.5-fold of each other in “Inhibition of Haloperidol catalepsy ED50” value: 80 mg/kg for the first, 70 mg/kg for the second.

With `CC(C)C[C@H](NC(=O)C1CNC(=O)N1)C(=O)N1CCC[C@H]1C(N)=O` (stereo partly drawn) [Kic Leu Pro, L-2-Ketoimidazolidine-4-carbonyl-L-leucyl-L-prolinamide] the “Inhibition of Haloperidol catalepsy ED50” value was 80 mg/kg.

The compounds below were run on L-Dopa-induced locomotive activity (assay: Potentiation of locomotive activity induced on mice by L-Dopa). Settings: Pargyline 40 mg/kg i.p., compound 20 mg/kg i.p., L-Dopa 100 mg/kg i.p., 30 min, percent related to TRH.
Assay type: in vivo
Description: (2) Potentiation of locomotive activity induced on mice by L-Dopa (see The Thyroid Axis, Drugs and Behavior, p. 116, A. J. Prage Jr., Raven Press, New York, 1974)
The tests were performed on groups of 15 male mice each, weighing 18 to 22 g.
First, the animals were treated intraperitoneally with 40 mg/kg of N-methyl-N-propargyl-benzylamine (Pargyline), and then an intraperitoneal dosage of 20 mg/kg of TRH or a TRH-analogue was introduced, followed by an intraperitoneal dosage of 100 mg/kg of L-Dopa. The locomotive activity of the animals was recorded 30, 60 and 90 minutes after this treatment, and the level of potentiation was expressed in percents related to the results observed with TRH.

First: CC(C)C[C@H](NC(=O)C1CNC(=O)N1)C(=O)N1CCC[C@H]1C(N)=O (stereo partly drawn) [Kic Leu Pro, L-2-Ketoimidazolidine-4-carbonyl-L-leucyl-L-prolinamide]
Second: CC(C)C[C@H](NC(=O)[C@H]1CCC(=O)N1)C(=O)N1CCC[C@H]1C(N)=O [D-Glp Leu Pro, D-Pyroglutamyl-L-leucyl-L-prolinamide] ([d(pGlu)]-Leu-Pro-NH2)
The “Potentiation of the locomotive effect of L-Dopa, % after 30'” value of the first is higher: 118% for the first, 54% for the second.

Same assay, conditions: compound 20 mg/kg i.p., 60 min, percent related to TRH

First: NC(=O)[C@@H]1CCCN1C(=O)[C@H](Cc1c[nH]cn1)NC(=O)[C@@H]1CCC(=O)N1 [TRH, L-pyroglutamyl-L-histidyl-L-prolinamide, reference compound]
Second: CC(C)C[C@H](NC(=O)[C@H]1CCC(=O)N1)C(=O)N1CCC[C@H]1C(N)=O [D-Glp Leu Pro, D-Pyroglutamyl-L-leucyl-L-prolinamide] ([d(pGlu)]-Leu-Pro-NH2)
The “Potentiation of the locomotive effect of L-Dopa, % after 60'” value of the first is higher: 100% for the first, 58% for the second.

In the case of `CC(C)C[C@H](NC(=O)C1CNC(=O)N1)C(=O)N1CCC[C@H]1C(N)=O` (stereo partly drawn) [Kic Leu Pro, L-2-Ketoimidazolidine-4-carbonyl-L-leucyl-L-prolinamide], the “Potentiation of the locomotive effect of L-Dopa, % after 60'” value is reported as 70%.

Same assay, conditions: compound 20 mg/kg i.p., 90 min, percent related to TRH

First: NC(=O)[C@@H]1CCCN1C(=O)[C@H](Cc1c[nH]cn1)NC(=O)[C@@H]1CCC(=O)N1 [TRH, L-pyroglutamyl-L-histidyl-L-prolinamide, reference compound]
Second: CC(C)C[C@H](NC(=O)[C@H]1CCC(=O)N1)C(=O)N1CCC[C@H]1C(N)=O [D-Glp Leu Pro, D-Pyroglutamyl-L-leucyl-L-prolinamide] ([d(pGlu)]-Leu-Pro-NH2)
The “Potentiation of the locomotive effect of L-Dopa, % after 90'” value of the first is lower: 100% for the first, 115% for the second.

With `CC(C)C[C@H](NC(=O)C1CNC(=O)N1)C(=O)N1CCC[C@H]1C(N)=O` (stereo partly drawn) [Kic Leu Pro, L-2-Ketoimidazolidine-4-carbonyl-L-leucyl-L-prolinamide] the “Potentiation of the locomotive effect of L-Dopa, % after 90'” value was 98%.

These compounds were tested on Reserpine hypothermy (assay: Reserpine hypothermy-reversing effect on mice). Settings: 1 hour after 20 mg/kg of the tripeptide, average of 10 animals.
Assay type: in vivo
Description: (3) Reserpine hypothermy-reversing effect on mice (see B. M. Askew: Life Sci. 2, 725-730/1963/)
The tests were performed on groups of 10 male mice each, weighing 18 to 22 g. Reserpine was administered into the animals in an intraperitoneal dosage of 5 mg/kg, and 16 hours later the animals were treated with 20 mg/kg of TRH or a tripeptide under examination.
The rectal temperature of the animals was measured prior to the administration of reserpine (marked by "norm." in Table 1), 16 hours after the administration of reserpine (marked by "res." in Table 1), furthermore 1 and 2 hours after the administration of the tripeptide (marked by "obs.time" in Table 1). The data listed in Table 1 are the averages of the temperatures observed on the 10 animals.

First: NC(=O)[C@@H]1CCCN1C(=O)[C@H](Cc1c[nH]cn1)NC(=O)[C@@H]1CCC(=O)N1 [TRH, L-pyroglutamyl-L-histidyl-L-prolinamide, reference compound]
Second: CC(C)C[C@H](NC(=O)[C@H]1CCC(=O)N1)C(=O)N1CCC[C@H]1C(N)=O [D-Glp Leu Pro, D-Pyroglutamyl-L-leucyl-L-prolinamide] ([d(pGlu)]-Leu-Pro-NH2)
The “Reserpine hypothermy reversing effect, rectal temperature obs. time 1 h” value of the first is higher: 35.5 °C for the first, 25.8 °C for the second.

`CC(C)C[C@H](NC(=O)C1CNC(=O)N1)C(=O)N1CCC[C@H]1C(N)=O` (stereo partly drawn) [Kic Leu Pro, L-2-Ketoimidazolidine-4-carbonyl-L-leucyl-L-prolinamide] was tested, and the “Reserpine hypothermy reversing effect, rectal temperature obs. time 1 h” value was 27.7 °C.

Same assay, conditions: 2 hours after 20 mg/kg of the tripeptide, average of 10 animals

Going from `CC(C)C[C@H](NC(=O)C1CNC(=O)N1)C(=O)N1CCC[C@H]1C(N)=O` (stereo partly drawn) [Kic Leu Pro, L-2-Ketoimidazolidine-4-carbonyl-L-leucyl-L-prolinamide] to `CC(C)C[C@H](NC(=O)[C@H]1CCC(=O)N1)C(=O)N1CCC[C@H]1C(N)=O` [D-Glp Leu Pro, D-Pyroglutamyl-L-leucyl-L-prolinamide] ([d(pGlu)]-Leu-Pro-NH2), the “Reserpine hypothermy reversing effect, rectal temperature obs. time 2 h” value falls from 28.8 °C to 25.6 °C.

Same assay, conditions: 16 hours after reserpine 5 mg/kg i.p., before the tripeptide, average of 10 animals

Compared with `CC(C)C[C@H](NC(=O)C1CNC(=O)N1)C(=O)N1CCC[C@H]1C(N)=O` (stereo partly drawn) [Kic Leu Pro, L-2-Ketoimidazolidine-4-carbonyl-L-leucyl-L-prolinamide], `CC(C)C[C@H](NC(=O)[C@H]1CCC(=O)N1)C(=O)N1CCC[C@H]1C(N)=O` [D-Glp Leu Pro, D-Pyroglutamyl-L-leucyl-L-prolinamide] ([d(pGlu)]-Leu-Pro-NH2) is higher in “Reserpine hypothermy reversing effect, rectal temperature res.” value: 24.1 °C for the first, 27.4 °C for the second.

Same assay, conditions: baseline prior to administration of reserpine, average of 10 animals

First: CC(C)C[C@H](NC(=O)C1CNC(=O)N1)C(=O)N1CCC[C@H]1C(N)=O (stereo partly drawn) [Kic Leu Pro, L-2-Ketoimidazolidine-4-carbonyl-L-leucyl-L-prolinamide]
Second: CC(C)C[C@H](NC(=O)[C@H]1CCC(=O)N1)C(=O)N1CCC[C@H]1C(N)=O [D-Glp Leu Pro, D-Pyroglutamyl-L-leucyl-L-prolinamide] ([d(pGlu)]-Leu-Pro-NH2)
The “Reserpine hypothermy reversing effect, rectal temperature norm.” value of the first is lower: 35.5 °C for the first, 36.5 °C for the second.

These compounds were tested on hexobarbital-induced sleeping (assay: Influencing the duration of sleeping caused by hexobarbital). Settings: mice, hexobarbital sodium 60 mg/kg i.v., compound 20 mg/kg i.p. 10 min later; control sleeping 38.4 ± 1.36 min.
Assay type: in vivo
Description: (4) Influencing the duration of sleeping caused by hexobarbital The tests were performed on groups of 10 male mice each. The animals were treated intravenously with 60 mg/kg of hexobarbital sodium ([…]®; Bayer), and 10 minutes later 20 mg/kg of TRH or a tripeptide under examination were administered intraperitoneally into the animals. The sleeping times of the animals were recorded, averages were calculated for the individual groups, and the results were expressed as percents related to the control group.

Going from `NC(=O)[C@@H]1CCCN1C(=O)[C@H](Cc1c[nH]cn1)NC(=O)[C@@H]1CCC(=O)N1` [TRH, L-pyroglutamyl-L-histidyl-L-prolinamide, reference compound] to `CC(C)C[C@H](NC(=O)[C@H]1CCC(=O)N1)C(=O)N1CCC[C@H]1C(N)=O` [D-Glp Leu Pro, D-Pyroglutamyl-L-leucyl-L-prolinamide] ([d(pGlu)]-Leu-Pro-NH2), the “Decrease of sleeping period (% related to the control animals), Hexobarb.” value rises from 56% to 97%.

With `CC(C)C[C@H](NC(=O)C1CNC(=O)N1)C(=O)N1CCC[C@H]1C(N)=O` (stereo partly drawn) [Kic Leu Pro, L-2-Ketoimidazolidine-4-carbonyl-L-leucyl-L-prolinamide] the “Decrease of sleeping period (% related to the control animals), Hexobarb.” value was 59%.

These compounds were tested on ethanol-induced sleeping (assay: Ethanol narcosis). Settings: mice, ethanol 4.5 g i.p., compound 20 mg/kg i.p. 10 min later; control sleeping 46.9 ± 2.17 min.
Assay type: in vivo, CFLP (LATI) mice
Description: (5) Ethanol narcosis (see J. M. Cott et al.: J. Pharm. Exp. Ther. 196, 594/1976/) The tests were performed on groups of 20 CFLP (LATI) mice of both sexes, each weighing 18 to 22 g. 4.5 g of ethanol were introduced intraperitoneally into the animals, and 10 minutes later the animals were treated intraperitoneally with 20 mg/kg of the tripeptide under examination. The sleeping periods of the animals were recorded, averages were calculated for the individual groups, and the results were expressed as percents related to the control group.

Compared with `NC(=O)[C@@H]1CCCN1C(=O)[C@H](Cc1c[nH]cn1)NC(=O)[C@@H]1CCC(=O)N1` [TRH, L-pyroglutamyl-L-histidyl-L-prolinamide, reference compound], `CC(C)C[C@H](NC(=O)[C@H]1CCC(=O)N1)C(=O)N1CCC[C@H]1C(N)=O` [D-Glp Leu Pro, D-Pyroglutamyl-L-leucyl-L-prolinamide] ([d(pGlu)]-Leu-Pro-NH2) is higher in “Decrease of sleeping period (% related to the control animals), Ethanol” value: 35% for the first, 54% for the second.

For `CC(C)C[C@H](NC(=O)C1CNC(=O)N1)C(=O)N1CCC[C@H]1C(N)=O` (stereo partly drawn) [Kic Leu Pro, L-2-Ketoimidazolidine-4-carbonyl-L-leucyl-L-prolinamide], the “Decrease of sleeping period (% related to the control animals), Ethanol” value was 69%.

The compounds below were run on TSH (assay: Hormonal activity (TSH effect) on rats). Settings: 20 mg/kg i.v., plasma TSH by radioimmune assay 15 min after treatment, relative activity, TRH = 100%.
Assay type: in vivo, rat (male Wistar)
Description: (6) Hormonal activity (TSH effect) on rats
The tests were performed on groups of 7 or 8 male Wistar rats each, weighing 200 g. The animals were treated intravenously with 20 mg/kg of TRH or a tripeptide under examination. The TSH reaction of the animals was evaluated 15 minutes after this treatment, by subjecting the blood plasma to radioimmune assay. The relative activities were calculated by the four-point method using a TPA 101 computer, and the activity of TRH was regarded as 100%.

`CC(C)C[C@H](NC(=O)C1CNC(=O)N1)C(=O)N1CCC[C@H]1C(N)=O` (stereo partly drawn) [Kic Leu Pro, L-2-Ketoimidazolidine-4-carbonyl-L-leucyl-L-prolinamide] and `CC(C)C[C@H](NC(=O)[C@H]1CCC(=O)N1)C(=O)N1CCC[C@H]1C(N)=O` [D-Glp Leu Pro, D-Pyroglutamyl-L-leucyl-L-prolinamide] ([d(pGlu)]-Leu-Pro-NH2) are the same in TSH effect: 0% for the first, 0% for the second.
